The nature of data set [1]: Retention index (RI) measurement by GC/MS. Conditions: HP-5 MS column (95% dimethylpolysiloxane/5% phenyl-methylpolysiloxane), 1000 ppm in ethanol, n-alkane mixture C6-C35, linear method. The class given is physicochemical. How it is done: Menthol (L-Menthol, manufactured by Takasago International Corporation) and cooling sensation agents (the abovementioned COOLACT® 370, COOLACT® 5, COOLACT® 10, COOLACT® 20, Symcool® WS-5, and Symcool® WS-23) were respectively diluted by adding ethanol to obtain diluted solutions of menthol and each cooling sensation agent diluted to 1000 ppm in ethanol.
Gas chromatography with a mass spectrometer (GC/MS) was then performed on the abovementioned diluted solutions thus obtained.
• Apparatus: 7890B/5977B GC/MSD, manufactured by Agilent Technologies GC conditions • Column: HP-5 MS (manufactured by Agilent Technologies) • Inner diameter 0.25 mm×length 30 m, film thickness 0.25 μm • Injection volume: 1 μL • Injection mode: Split (10:1) • Injection port temperature: 270° C. • Septum purge flow: 5 ml/minute • Carrier gas: Helium (He) • Column flow rate: 1 mL/minute (constant flow mode) • Oven temperature: From 40° C. (3 minutes) to 280° C. (20 minutes) at a rate of 4° C./minute • Transfer line temperature: 280° C. MS conditions • Solvent wait time: 4 minutes • Ionization method: Electron impact ionization (EI), 70 eV • Ion source temperature: 230° C. • Quadrupole temperature: 150° C. • Measurement mode: Scan • MS scan range: m/z 26-450 • Threshold: 50 • Sampling rate: 2
The chromatogram retention index (RI) obtained by the abovementioned GC/MS analysis was calculated by the following method.
The RI of menthol or respective cooling agent was calculated by a linear method on the basis of an n-alkane mixture ranging from n-hexane (C6, RI: 600) to n-pentatriacontane (C35, RI: 3500) Note that the n-alkane mixture used in calculating the RI is not limited thereto.

The nature of data set [2]: Storage resistance by GC/MS: residual rate in tobacco filler in an open system. To be noted: 5,000 ppm in tobacco filler, open system on a tray, 5 days in an incubator, internal standard quinoline. It is filed as physicochemical. How it is done:
Solutions were prepared by dissolving menthol and other cooling agents (the abovementioned COOLACT® 370 and Symcool® WS-23) respectively through addition of ethanol thereto. Each solution thus obtained was added to the tobacco filler portion of a combustion smoking article, using a microsyringe (MS-50, Ito Microsyringe, manufactured by Ito Seisakusho), such that that the content of menthol or other cooling sensation agent was 5,000 ppm relative to the weight of the tobacco, and the samples immediately after addition were considered to be “pre-storage cigarette samples.” Each solution thus obtained was also added to the tobacco filler portion of a heat-not-burn smoking article (a tobacco stick comprising a tobacco filler portion and a filter portion), using the abovementioned microsyringe, such that that the menthol or other cooling sensation agent content was 5,000 ppm relative to the weight of the tobacco therein, and the samples immediately after addition were considered to be “pre-storage tobacco stick samples.” The cigarettes and tobacco sticks injected with menthol or other cooling sensation agent were then placed on a tray (DT-1 disposable tray, manufactured by As One), stored for 5 days in an incubator (SCI-13 compact incubator, manufactured by Shibata), and were respectively considered to be “post-storage cigarette samples” and “post-storage tobacco stick samples.”
In addition, 1.0 g of quinoline was precisely weighed out as an internal standard, and diluted to 1 L with methanol to serve as an extraction solvent.
The pre-storage cigarette samples, pre-storage tobacco stick samples, post-storage cigarette samples, and post-storage tobacco stick samples obtained as described above then underwent the following treatment. • The tobacco filler portion was removed from each sample and placed in a screw tube, and 10 mL of the extraction solvent, prepared as described above, was added. The screw tubes were then shaken at 200 rpm for 20 minutes, and, after having been left to stand overnight, shaken again at 200 rpm for 20 minutes to obtain tobacco filler portion extract samples. The extract samples obtained from the pre-storage cigarette samples, pre-storage tobacco stick samples, post-storage cigarette samples, and post-storage tobacco stick samples were respectively considered to be “pre-storage cigarette extract samples,” “pre-storage tobacco stick extract samples,” “post-storage cigarette extract samples,” and “post-storage tobacco stick extract samples.”
The extract samples thus obtained were each collected using a syringe (25 mL, SS-02SZ, manufactured by Terumo Corporation) and filtered through a filter (0.45 μm, Prem Syringe Filter, RC, manufactured by Agilent Technologies), and the liquids obtained after filtration were respectively considered to be extract samples for pre-storage cigarette analysis, extract samples for pre-storage tobacco stick analysis, extract samples for post-storage cigarette analysis, and extract samples for post-storage tobacco stick analysis.
The target ions and qualifier ions shown below were selected for the respective cooling sensation agents. A target ion and qualifier ion were also selected for quinoline, used as the internal standard. • Menthol (target ion: m/z=95.1, qualifier ion: m/z=71.0, 81.1) • […] (target ion: m/z=114.0, qualifier ion: m/z=57.0, 102.0) • COOLACT® 370 (target ion: m/z=211.2, qualifier ion: m/z=97.0, 168.1) • Quinoline (target ion: m/z=129.1, qualifier ion: m/z=76.0, 102.0)
• Column: HP-5 MS (manufactured by Agilent Technologies), inner diameter 0.25 mm×length 30 m, film thickness 0.25 μm • Injection volume: 1 μL • Injection mode: Split (10:1) • Injection port temperature: 270° C. • Septum purge flow rate: 5 mL/minute • Carrier gas: Helium (He) • Column flow rate: 1 ml/minute (constant flow mode) • Oven: 40° C. (for 3 minutes) to 280° C. (for 10 minutes) at 10° C./minute […]

Data set [3] can be described thus: Storage resistance by GC/MS: migration from tobacco filler to filter in a closed system. Conditions: tobacco sticks, 2,500, 5,000 and 10,000 ppm. The class given is physicochemical. How it is done: A solution was prepared by dissolving a methyl menthol derivative (the abovementioned COOLACT® 370) through addition of methanol thereto. The solution thus obtained was added using the microsyringe described above to the tobacco filler of portion of an unheated smoking article (a tobacco stick comprising a tobacco filler portion and a filter portion), using the abovementioned microsyringe, such that the methyl menthol derivative content was 2,500 ppm, 5,000 ppm, or 10,000 ppm relative to the weight of tobacco therein, and the samples immediately after addition were considered to be “pre-storage tobacco stick samples.” Each tobacco stick injected with the methyl menthol derivative was placed in a Lami-Zip bag (AL-5, manufactured by Seisannipponsha), and left in an incubator (an SCI-13 compact incubator, manufactured by Shibata) for 5 days to provide a “post-storage tobacco stick sample.”
The pre-storage and post-storage tobacco stick samples obtained in the abovementioned manner underwent the following processing. • The tobacco filler portion and filter portion were removed from each sample and placed in a separate screw tube, and 10 mL of methanol were added. […]

Data set [4] is described as follows: Preliminary study of cooling sensation intensity. The class given is in vivo. To be noted: similar contents. The text has this: Whereas the content of the methyl menthol derivative or cooling agent other than a methyl menthol derivative as a cooling ingredient was 2000 ppm in the abovementioned Examples 1-3 and in Comparative Examples 2 and 4, the content of the cooling ingredient menthol in the abovementioned Comparative Examples 1 and 3 was set to 5,000 ppm, thus adjusting the cooling sensation intensity as much as possible to facilitate comparison, in order to assess cooling sensation intensity in the present sensory evaluation.

The mark [5] stands for this setting: cigarettes (combustion smoking articles).
Where [6] appears, read: tobacco sticks (heat-not-burn smoking articles).

For `CCOC(=O)CNC(=O)C1CC(C)CCC1C(C)C` (stereo not shown) [Symcool® WS-5, ethyl-2-(p-menthane-3-carboxamido)acetate], the “Retention index (RI)” value in data set [1] amounted to 1942.

On to `CC(O)CC(=O)O[C@@H]1C[C@H](C)CC[C@H]1C(C)C` (stereo partly drawn) [COOLACT® 20, L-menthyl-3-hydroxybutyrate], for which the “Retention index (RI)” value in data set [1] was 1611.

Turning to `CC1CCC(C(C)C)C(OCC(O)CO)C1` [COOLACT® 10, 3-L-menthoxypropane-1,2-diol], the “Retention index (RI)” value in data set [1] came out at 1674.

On to `CC(C)[C@@H]1CC[C@@H](C)C[C@H]1OCCO` [COOLACT® 5, 2-L-menthoxyethanol], for which, in data set [1], the “Retention index (RI)” value was 1414.

Regarding `CNC(=O)C(C)(C(C)C)C(C)C` [Symcool® WS-23, 2-isopropyl-N,2,3-trimethylbutyramide], the “Retention index (RI)” value in data set [1] was determined as 1287. Also, the Residual rate in data set [2] (setting [5]) is 33.5%; in data set [2] (setting [6]) it was 50.2%.

As to `CC(C)C1CCC(C)(C)CC1C(=O)NCC(O)c1ccccc1` (stereo not shown) [COOLACT® 370, N-(2-hydroxy-2-phenylethyl)-2-isopropyl-5,5-dimethylcyclohexane-1-carboxamide], the “Retention index (RI)” value in data set [1] is 2477. Besides, the figures for the Residual rate in data set [2] (setting [5]) and in data set [2] (setting [6]) were 98.5% and 100%, respectively. In data set [3] (closed system (Lami-Zip bag), 5 days in an incubator, FIGS. 10-12), the “Migration from tobacco filler portion to filter portion, post-storage” value is recorded as “had not migrated from the tobacco filler portion to the filter portion”. In addition, the “Migration from tobacco filler portion to filter portion, pre-storage” value in data set [3] (immediately after addition, GC/MS total ion chromatograms, FIGS. 7-9) is “did not migrate from the tobacco filler portion to the filter portion”.

Regarding `CC1CCC(C(C)C)C(O)C1` (stereo not shown) [Menthol], the “Retention index (RI)” value in data set [1] turned out to be 1173. Moreover, the Residual rate was found to be 15.9% in data set [2] (setting [5]) and 10.4% in data set [2] (setting [6]). The “Cooling sensation intensity compared with methyl menthol derivatives and other cooling agents” value in data set [4] is reported as “weaker cooling sensation intensity”.

For the origin of these results see US20260206828A1, “CONSTITUENT MEMBER PERFUMED BY FLAVOR RAW MATERIAL AND SMOKING ARTICLE” (Japan Tobacco Inc., priority 2022, published 2026).
